Assay results as given in patent US7737138B2 (priority 2004, dated 2010).
Structures can show the parent of a compound that is named as a salt. Where two headings read alike, the source gives them in different places.

Columns and labels:
[1] = biological target: full-length tau (T40) / 12 kD PHF-core tau fragment in fibroblast cells (3T6) (Homo sapiens, UniProt P10636); assay: cell-based; format: cell-based
[2] = biological target: tau-tau binding: truncated tau (residues 297-390; dGA) and full-length tau (T40) (Homo sapiens, UniProt P10636); details: for IC50: read-out: B50
Sequence of tau-tau binding: truncated tau (residues 297-390; dGA) and full-length tau (T40) (P10636 614-707): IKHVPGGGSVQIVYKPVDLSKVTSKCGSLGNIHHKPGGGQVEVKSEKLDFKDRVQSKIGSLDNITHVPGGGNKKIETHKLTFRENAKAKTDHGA

fibroblast cells (3T6) = test system: fibroblast cells (3T6); design: unit not given beside the values
[3] = test system: viruses such as HIV and West Nile Virus; details: MTC under the name Virostat, from Bioenvision Inc.; cited from earlier work

Sequence of full-length tau (T40) / 12 kD PHF-core tau fragment in fibroblast cells (3T6) (P10636 612-707): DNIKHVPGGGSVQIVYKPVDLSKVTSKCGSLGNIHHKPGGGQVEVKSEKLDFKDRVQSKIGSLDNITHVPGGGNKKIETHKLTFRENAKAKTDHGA

| B50 [2] | Compound | EC50 [1] | IC50 ([2]; concentration of compound required to inhibit the tau-tau binding by 50%, […]) | IC50 [2] | LD50 (fibroblast cells (3T6)) | viricidal activity in vitro [3] |
| --- | --- | --- | --- | --- | --- | --- |
| 145.4 ± 5.7 (5) | CCN(CC)c1ccc2nc3ccc(N(CC)CC)cc3[s+]c2c1 [ETZ, Ethylthioninium Chloride (ETC) Zinc Chloride (Double Salt)] | 60 nM | – | – | – | – |
| – | Ethyl-thioninium iodide [ETI] | 60 nM | > 500000 nM | – | – | – |
| – | Ethylthioninium Chloride [ETC] | 70 nM | – | 49000 nM | 32.0 ± 4.0 (26) | – |
| – | CN(C)c1ccc2nc3ccc(N(C)C)cc3[s+]c2c1 [MTC, Methythioninium Chloride] | – | – | – | – | potent viricidal activity |
| – | 1,9-Diethyl Ethylthioninium chloride [DEETC] | 0.6 nM | – | 3700 nM | 1.6 ± 0.4 (13) | – |
